Results: PMC9233675, “Ru(II) photocages enable precise control over enzyme activity with red light” (Nature Communications, 2022)
Residue numbers refer to the chain shown, from its start.

How the values were obtained:
CYP1B1 F134L = target: T1, CYP1B1 F134L (Homo sapiens, UniProt Q16678, F134L)
T1 sequence (Q16678 1-543 F134L): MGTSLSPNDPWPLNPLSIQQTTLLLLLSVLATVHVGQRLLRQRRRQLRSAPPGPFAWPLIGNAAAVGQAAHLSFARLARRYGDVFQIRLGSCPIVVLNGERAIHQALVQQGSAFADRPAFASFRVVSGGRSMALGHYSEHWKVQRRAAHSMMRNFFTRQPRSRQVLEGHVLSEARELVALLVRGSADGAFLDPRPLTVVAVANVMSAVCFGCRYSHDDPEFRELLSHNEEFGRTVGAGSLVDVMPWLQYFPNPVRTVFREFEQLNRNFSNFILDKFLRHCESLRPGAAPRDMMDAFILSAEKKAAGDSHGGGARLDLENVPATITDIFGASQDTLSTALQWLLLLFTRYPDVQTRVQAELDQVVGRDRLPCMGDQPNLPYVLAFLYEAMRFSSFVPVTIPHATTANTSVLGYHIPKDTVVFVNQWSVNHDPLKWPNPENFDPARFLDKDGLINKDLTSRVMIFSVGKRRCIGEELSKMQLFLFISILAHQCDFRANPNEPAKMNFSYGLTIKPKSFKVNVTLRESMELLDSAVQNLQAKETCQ
Excerpt: (§1) Site directed mutagenesis was used to probe the importance of specific active-site contacts identified through the structural assessment (Fig. 3a, b) and simulations. In all cases, conservative mutations were made to maintain polar or hydrophobic character and approximate size. The aromatic residues that frame the inhibitor binding site, Phe143 and Phe231, were mutated to Leu to determine the importance of the π interactions. In addition, the Ser127 residue, located in the upper corner of the active site on the B-C loop, was chosen for mutation based on the simulations. This amino acid transiently contacts the inhibitors, but also forms a hydrogen bond with Asp326 of the I-helix, and thus may impact the position of this helix with regards to the B-C loop. […] Rather than directly mutating these residues in the I-helix, neighboring residues Gln332 and Asp333 were targeted, with the hope of interrupting amino acid interactions that position the helix within the active site.
(§2) The ratio of IC50 values for the WT vs. the mutant are shown in Fig. 3c and reflects the importance of the specific contact; the log of the value is used to aid in visualization.
(§3) Cell lines were seeded onto Geltrex coated 96-well plates at 40,000 cells/well, and grown overnight in DMEM media containing 1 μg/mL tetracycline. The media was then replaced with Opti-MEM supplemented with 2% FBS and 1 μg/mL tetracycline. Compounds were serially diluted in Opti-MEM supplemented with 2% FBS and 1 μg/mL tetracycline and an equal volume of compound added to the cells (n = 3). Following a 1 h incubation, resorufin ethyl ether (REE; for CYP1B1 and 1A1) or dibenzylfluorescein (DBF; for 19A1) was added to the cells for a total concentration of 5 μM for REE and 1 μM for DBF. […] Dose–response curves were generated in Prism and normalized using the no-compound control (set as 100% activity) and the no-cell control (set as 0% activity; this value in the raw data reflects the background fluorescence of the dye alone).

CYP1B1 D333N = target: T2, CYP1B1 D333N (Homo sapiens, UniProt Q16678, D333N)
T2 sequence (Q16678 1-543 D333N): T1 sequence (Q16678 1-543 F134L) with L134F, D333N
Excerpt: as §1, §2, §3

CYP1B1 Q332E = target: T3, CYP1B1 Q332E (Homo sapiens, UniProt Q16678, Q332E)
T3 sequence (Q16678 1-543 Q332E): T1 sequence (Q16678 1-543 F134L) with L134F, Q332E
Excerpt: as §1, §2, §3

CYP1B1 S127A = target: T4, CYP1B1 S127A (Homo sapiens, UniProt Q16678, S127A)
T4 sequence (Q16678 1-543 S127A): T1 sequence (Q16678 1-543 F134L) with S127A, L134F
Excerpt: as §1, §2, §3

CYP1B1 S269A = target: T5, CYP1B1 S269A (Homo sapiens, UniProt Q16678, S269A)
T5 sequence (Q16678 1-543 S269A): T1 sequence (Q16678 1-543 F134L) with L134F, S269A
Excerpt: as §1, §2, §3

## O=c1cc(-c2ccccc2)oc2c1ccc1ccccc12 [ANF, α-naphthoflavone]
CYP1B1 F134L
  logSI F134L: -0.301
CYP1B1 D333N
  logSI D333N: 1.497
CYP1B1 Q332E
  logSI Q332E: 0.906
CYP1B1 S127A
  logSI S127A: -1.15
CYP1B1 S269A
  logSI S269A: 0
